The values below come from patent US5519024A, “Quinolonecarboxylic acid derivatives and their use” (Takeda Chemical Industries, Ltd., priority 1993, dated 1996).

Counter-ions that a name gives are not always drawn. Like-named read-outs stand apart in the source and are kept apart here.

The target in this assay is T1, GPIIb/IIIa (Homo sapiens, UniProt P05106+P08514).
T1 construct: Purification of GPIIb/IIIa from HEL cells; endogenous in cells; host or cells: HEL cells (HEL 92.1.7, ATCC TIB180); endogenous complex solubilized with Triton X-100 and purified in house
T1 sequence (P08514 32-887 limits assumed): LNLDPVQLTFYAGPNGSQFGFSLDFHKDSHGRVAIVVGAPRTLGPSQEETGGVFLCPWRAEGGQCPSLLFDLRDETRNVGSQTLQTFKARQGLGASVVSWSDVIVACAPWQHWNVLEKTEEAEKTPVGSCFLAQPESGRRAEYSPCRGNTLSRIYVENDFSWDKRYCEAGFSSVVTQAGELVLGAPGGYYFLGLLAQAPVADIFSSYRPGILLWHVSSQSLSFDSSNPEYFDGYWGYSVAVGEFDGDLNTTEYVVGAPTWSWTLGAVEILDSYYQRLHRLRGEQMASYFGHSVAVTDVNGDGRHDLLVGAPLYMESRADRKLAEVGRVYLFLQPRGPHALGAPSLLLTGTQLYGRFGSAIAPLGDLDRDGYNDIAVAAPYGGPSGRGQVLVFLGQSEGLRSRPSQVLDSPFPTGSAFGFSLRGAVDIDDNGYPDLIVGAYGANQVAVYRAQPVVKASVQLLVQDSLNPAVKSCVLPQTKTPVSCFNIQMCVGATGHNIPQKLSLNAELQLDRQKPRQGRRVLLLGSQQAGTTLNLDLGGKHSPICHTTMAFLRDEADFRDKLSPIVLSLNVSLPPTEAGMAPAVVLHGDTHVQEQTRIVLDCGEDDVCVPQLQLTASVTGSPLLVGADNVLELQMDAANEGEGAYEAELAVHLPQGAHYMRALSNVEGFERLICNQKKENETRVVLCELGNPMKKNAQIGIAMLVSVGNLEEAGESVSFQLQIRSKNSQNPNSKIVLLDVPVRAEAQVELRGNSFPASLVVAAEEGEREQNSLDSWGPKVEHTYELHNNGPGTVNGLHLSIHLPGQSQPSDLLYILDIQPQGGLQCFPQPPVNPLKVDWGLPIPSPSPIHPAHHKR
T1 sequence (P08514 891-1039 limits assumed): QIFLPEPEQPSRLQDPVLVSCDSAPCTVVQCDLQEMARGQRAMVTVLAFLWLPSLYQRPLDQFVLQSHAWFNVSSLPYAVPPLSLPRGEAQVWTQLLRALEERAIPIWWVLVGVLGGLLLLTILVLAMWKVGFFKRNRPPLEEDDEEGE
T1 sequence (P05106 27-788): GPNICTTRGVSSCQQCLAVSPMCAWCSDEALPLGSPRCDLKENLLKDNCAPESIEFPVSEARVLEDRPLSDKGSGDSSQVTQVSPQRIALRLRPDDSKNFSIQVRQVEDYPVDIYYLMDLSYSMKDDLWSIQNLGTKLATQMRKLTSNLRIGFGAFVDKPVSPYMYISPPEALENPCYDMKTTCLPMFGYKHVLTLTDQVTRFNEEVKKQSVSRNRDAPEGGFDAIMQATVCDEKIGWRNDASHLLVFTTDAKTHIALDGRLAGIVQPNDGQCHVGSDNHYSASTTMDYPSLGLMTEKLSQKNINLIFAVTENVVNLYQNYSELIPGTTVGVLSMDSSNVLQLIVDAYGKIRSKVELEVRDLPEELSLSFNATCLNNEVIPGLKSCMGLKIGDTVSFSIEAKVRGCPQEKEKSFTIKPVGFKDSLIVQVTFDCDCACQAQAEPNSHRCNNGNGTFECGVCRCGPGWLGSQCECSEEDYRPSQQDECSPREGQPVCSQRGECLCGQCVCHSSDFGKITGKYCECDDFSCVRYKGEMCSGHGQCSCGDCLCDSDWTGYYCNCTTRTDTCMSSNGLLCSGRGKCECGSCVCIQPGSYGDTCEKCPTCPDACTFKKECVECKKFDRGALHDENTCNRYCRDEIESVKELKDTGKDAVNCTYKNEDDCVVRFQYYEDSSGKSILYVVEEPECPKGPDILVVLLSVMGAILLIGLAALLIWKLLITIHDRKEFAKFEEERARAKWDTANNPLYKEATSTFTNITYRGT
The assay is described as follows: Inhibitory activity against binding of GPIIb/IIIa and fibrinogen. The settings on record: read-out: GPIIb/IIIa Fibrinogen Binding Inhibitory Activity. The essentials:
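Plates were coated with GPIIb/IIIa purified from HEL cells (1 μg/ml) and blocked with BSA. Test sample and biotinylated human fibrinogen (added as 100 nM solution) reacted 3 h at 30° C or overnight at room temperature in Tris buffer, 2 mM CaCl2, pH 7.4. Bound fibrinogen was detected with anti-biotin alkaline phosphatase and p-nitrophenyl phosphate.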

With `CN(C)CCOC1CCN(c2c(F)cc3c(=O)c(C(=O)O)cn(C4CC4)c3c2F)C1` (stereo not drawn) [Compound 25], for the setting “Table 2, 10^-5 M”, the inhibition at 10 µM came out at 87.8%. The inhibition at 1 µM (Table 2, 10^-6 M) is 67.7%.
For `O=C(O)c1cn2c3c(c(N4CCn5ccnc5C4)c(F)cc3c1=O)OCC2` [Compound 52, 9-Fluoro-10-(5,6,7,8-tetrahydroimidazo[1,2-a]pyrazin-7-yl)-2,3-dihydro-7-oxo-7H-pyrido[1,2,3-a][1,4]benzoxazine-6-carboxylic acid], for the setting “Table 2, 10^-5 M”, the inhibition at 10 µM came out at 90.8%. For the same compound, the inhibition at 1 µM (Table 2, 10^-6 M) is 55%.
As for `CCn1cc(C(=O)O)c(=O)c2cc(F)c(N3CCNCC3)nc21` [Enoxacin, reference compound], for the setting “Table 1, 1 × 10^-5 M”, the inhibition at 10 µM was 62%. Also, for the setting “Table 1, 1 × 10^-6 M”, the inhibition at 1 µM is 24.3%.
For the compound `O=C(O)c1cn(Cc2ccc(Cl)cc2)c2c(F)c(N3CCNCC3)c(F)cc2c1=O` [Compound 74, 1-(4-Chlorobenzyl)-6,8-difluoro-7-(1-piperazinyl)-1,4-dihydro-4-oxoquinoline-3-carboxylic acid], the inhibition at 10 µM (Table 2, 10^-5 M) was 58.5%. Further, the inhibition at 1 µM (Table 2, 10^-6 M) was found to be 26.1%.
The like results for `COc1ccc(Cn2cc(C(=O)O)c(=O)c3ccc(N4CCC(C5CCNCC5)CC4)cc32)cc1` [Compound 77, 1-(4-Methoxybenzyl)-7-[4-(4-piperidinyl)piperidin-1-yl]-1,4-dihydro-4-oxoquinoline-3-carboxylic acid] were, in that order, 94.5% and 100%.
For `CN(C)CCN(C)c1nc2c(cc1F)c(=O)c(C(=O)O)cn2C1CC1` [Compound 21], in that order: 69.9% and 31.3%.
The like results for `Cn1cc(C(=O)O)c(=O)c2cc(F)c(N3Cc4ccccc4C(N)C3)c(F)c21` (stereo not drawn) [Compound 2] were, in that order, 72.4% and 48.4%.
With `O=C(O)c1cn(Cc2nccs2)c2c(F)c(N3CCn4ccnc4C3)c(F)cc2c1=O` [Compound 51], the inhibition at 10 µM (Table 2, 10^-5 M) is 97.5%. Besides, where the note is “Table 2, 10^-6 M”, the inhibition at 1 µM worked out at 88.1%.
For `O=C(O)c1cn(Cc2nccs2)c2c(F)c(N3CCNCC3)c(F)cc2c1=O` [Compound 59, 6,8-Difluoro-7-(1-piperazinyl)-1-(2-thiazolylmethyl)-1,4-dihydro-4-oxoquinoline-3-carboxylic acid hydrochloride], the inhibition at 10 µM (Table 2, 10^-5 M) is 100%. In addition, the inhibition at 1 µM (Table 2, 10^-6 M) was found to be 100%.
